{"source": "ChEMBL document CHEMBL1151522", "about": "“Syntheses of homoserine phosphate analogs as potential inhibitors of bacterial threonine synthase” (Bioorg Med Chem Lett, 1994)", "key": {"[1]": {"experiment": "Inhibition of threonine synthase in Escherichia coli"}, "Escherichia coli [2]": {"system": "Escherichia coli", "experiment": "Inhibition of Escherichia coli threonine synthase expressed as inactivation constant; d: indicates competitive inhibitor"}, "[3]": {"experiment": "Inhibition of threonine synthase in Escherichia coli; c: indicates No inhibition at 10 mM"}, "Escherichia coli [4]": {"system": "Escherichia coli", "experiment": "Inhibition of Escherichia coli threonine synthase expressed as inactivation constant"}}, "data": [{"smiles": "NC(CSCP(=O)(O)O)C(=O)O", "note": "(stereo not drawn)", "values": [{"measurement": "Ki", "setting": "[1]", "result": 33, "unit": "µM"}, {"measurement": "K inact", "setting": "Escherichia coli [2]", "result": "d"}]}, {"smiles": "NC(COCP(=O)(O)O)C(=O)O", "note": "(stereo not drawn)", "values": [{"measurement": "Ki", "setting": "[3]", "result": "No inhibition"}]}, {"smiles": "NC(/C=C\\CP(=O)(O)O)C(=O)O", "note": "(stereo not drawn)", "values": [{"measurement": "Ki", "setting": "[1]", "result": 100000, "unit": "µM"}, {"measurement": "K inact", "setting": "Escherichia coli [4]", "result": 1.5, "unit": "min⁻¹"}]}, {"smiles": "NC(C/C=C/P(=O)(O)O)C(=O)O", "note": "(stereo not drawn)", "values": [{"measurement": "Ki", "setting": "[1]", "result": 540, "unit": "µM"}, {"measurement": "K inact", "setting": "Escherichia coli [2]", "result": "Competitive inhibitor"}]}, {"smiles": "NC(/C=C/CP(=O)(O)O)C(=O)O", "note": "(stereo not drawn)", "values": [{"measurement": "Ki", "setting": "[1]", "result": 400, "unit": "µM"}, {"measurement": "K inact", "setting": "Escherichia coli [4]", "result": 0.25, "unit": "min⁻¹"}]}, {"smiles": "NC(CC#CP(=O)(O)O)C(=O)O", "note": "(stereo not drawn)", "values": [{"measurement": "Ki", "setting": "[3]", "result": "No inhibition"}]}, {"smiles": "NC(C/C=C\\P(=O)(O)O)C(=O)O", "note": "(stereo not drawn)", "values": [{"measurement": "Ki", "setting": "[3]", "result": "No inhibition"}]}, {"smiles": "NC(CNCP(=O)(O)O)C(=O)O", "note": "(stereo not drawn)", "values": [{"measurement": "Ki", "setting": "[1]", "result": 59, "unit": "µM"}, {"measurement": "K inact", "setting": "Escherichia coli [4]", "result": 1.44, "unit": "min⁻¹"}]}]}
